Measurements taken from US10048278B2, “Screening for neurotoxic amino acid associated with neurological disorders” (priority 2003, dated 2018).

Tests used:
[1] = BMAA in dried skin of flying fox museum specimens (HPLC); conditions: Pteropus mariannus dried skin
Procedure: BMAA levels were measured in tissues of Cycas micronesica Hill from Guam, and tissues of Pteropus mariannus mariannus, an indigenous flying fox (bat) of Guam. Because Pteropus mariannus mariannus is now highly endangered, BMAA levels were measured in skin tissue from museum specimens of three flying foxes that were collected five decades ago in Guam, preserved as dried study skins, and deposited at the Museum of Vertebrate Zoology (MVZ), at the University of California, Berkeley.
BMAA was detected using high performance liquid chromatography (HPLC), and results were confirmed with thin layer chromatography (TLC) and gas chromatography-mass spectroscopy (GC-MS). For BMAA analysis, free amino acid extracts of flying fox and cycad tissues were prepared. Tissue samples were rehydrated for 30 minutes with water or trichloroacetic acid (mean tissue prep 80 mg/ml±32 SD), macerated, and filtered. Extracts were derivatized with 6-aminoquinolyl-N-hydrozysuccinimidyl carbamate (ACQ) following standardized protocols. […] The concentration of BMAA in samples was determined by the fluorescent tag using a Waters 2487 Dual-1 Fluorescence Detector, with excitation at 250 nm and emission at 395 nm. Detection of the ACQ-derivatized BMAA was dependent on concentration and quantification was accomplished with comparison of equal amounts of BMAA and a norleucine internal standard (representing a single mid-range concentration) resulting in a mean response of 51.2%. […] The limits of detection (LOD, defined as the lowest concentration of an analyte in a sample that can be detected though not necessarily quantitated) and limits of quantification (LOQ, the concentration within the linear range of the calibration curve relating absorbance to concentration) were determined by a concentration gradient of an authenticated standard (Sigma Chemical Co., St. Louis, Mo.). […] For data interpretations, all sample analyses were quantified within the range of the LOQ or were reported as not detected (ND) (Table 1). […]

[2] = Free and protein-associated BMAA in superior frontal gyrus tissue of patients; set-up: species or system human
Procedure: Tissues were provided by Dr. Patrick McGeer of the University of British Columbia, Vancouver, B.C., Canada. Autopsied tissues from patients were fixed in paraformaldehyde prior to storage in 15% buffered sucrose maintenance solution, where the time interval between death and autopsy varied from 4 hours to 5 days. Familial relationships, clinical histories, and histochemical characteristics of the Chamorro patients had been disclosed previously (McGeer et al, 1997, Neurology 49, 400-409). In addition, autopsied tissued from Canadian patients was provided, including two samples from two (2) Canadian patients who were clinically diagnosed with Alzheimer's disease prior to death, and thirteen (13) Canadian patients who died of natural causes other than progressive neurodegenerative diseases.
Tissues were homogenized twice in 0.1 N trichloroacetic acid and centrifuged at 15,800×g for 3 min to precipitate proteins and extract free amino acids. Protein-bound BMAA was released by hydrolysis of the precipitate at 110° C. in constant boiling 6N HCl for 24 hours. Particulate matter was removed from a 500 μl aliquot by ultrafiltration (Ultrafree-MC, Millipore Corp.) at 15,800×g and the resulting extract was freeze-dried. Amino acids were resuspended in 20 mM HCl, applied to a Sep-Pac C18 cartridge equilibrated with sequential washes of 100% methanol, 50% methanol in water, and a gradient of borate buffer:acetronitrile (0.5M borate:0-60% CH3CN) at 20% increments. BMAA in sample extracts was derivatized with 6-aminoquinolyl-N-hydroxysuccinimidyl carbamate following standardized protocols (Banack et al., 2003, Neurology 61: 387-389). Amino acids were quantified via HPLC separation as described above (Example 3). The presence of BMAA in the samples, as well as the identity and purity of the BMAA peak in the HPLC fractions, was verified by liquid chromatography mass spectroscopy (LC-MS) using an Agilent 1100 HPLC coupled with a variable wavelength diode array detector (DAD) and an SL single quadrapole MS with an atmospheric pressure ionization source (API) using the electrospray ionization interface (ESI). Compounds were separated on a Waters SymetryShield RP 18 column heated at 30° C. with a linear gradient elution of CH3CN (10 40%) in water. Nitrogen gas was purified and supplied to the ESI interface with a nebulizing pressure of 35 psi and two distinct modes were used for detection of compounds within the MS. The DAD detected compounds at 254 nm with a full spectral scan from 200 600 nm and 0.5 nm resolution within a semi micro flow cell. The initial signal was determined in positive scan mode with a 100 600 Da range at 50V fragmentor voltage. BMAA was identified using the extracted ion chromatogram in which the molecular ion peak was confirmed.

[3] = rats; cited from earlier work
[4] = Banack & Cox, 2003; cited from earlier work
[5] = system: cyanobacterial symbiont; experiment: Effect of amino acid supplementation of BG-11 medium on cyanobacterial growth; type: cell-based, Nostoc; conditions: BG-11 medium supplemented with glutamate or glutamine (0, 126, or 250 μmol/L)
Text: Cyanobacterial symbionts were isolated from infected coralloid roots of Cycas micronesica Hill, harvested from three accessioned specimens (vouchered specimens of known provenance) growing in the National Tropical Botanical Garden, Kalaheo, Kauai, and grown as an axenic culture with repeated passages. For analysis of cycad root tissues infected with cyanobacterial symbiots, soil-borne bacteria were removed from root tissues of Cycas micronesica Hill by surface-sterilizing roots immersion in a solution of 70% ethanol for 3 min, followed by a 30 min immersion in 1.6% sodium hypochlorite with 2 drops of surfactant and 3 sequential washes with sterile deionized water. Surface-sterilized root explants (1-2 cm long) were excised and cultured onto standard BG-11 medium, pH 7.1 solidified with gellam gum (Sigma). Root explant cultures were incubated in a controlled environment room with a 16 h photoperiod at a light intensity of 35-45 μmole/m^2/s and temperatures of 25-30° C. After 7-10 days of culture, proliferation of colonies of the cyanobacterial symbiont of the root explants was clearly visible. Serial subculture of individual cyanobacterial colonies ensured the absence of residual BMAA from root tissue. […] Histological verification of culture purity was conducted prior to chemical analyses. […]

[6] = superior frontal gyrus, Alzheimer's, Canadian (first patient)
[7] = superior frontal gyrus, Alzheimer's, Canadian (second patient)
[8] = superior frontal gyrus, PDC (Lytico-bodig), Chamorro, donor one

**Q.** Which results are given for CNC[C@H](N)C(=O)O [BMAA, β-N-methylamino-L-alanine]?
**A.** Concentration ([1]; specimen 114606): 1,879 μg/g; Concentration ([1]; specimen 114607): 7,502 μg/g; Concentration ([1]; specimen 114609): 1,287 μg/g; quantity of protein-bound BMAA compared to free BMAA ([2]; brain tissue, all other patients): 60-130 fold; BMAA recovered from the protein-bound fraction ([2]; brain tissue, one Lytico-Bodig (ALS-PDC) patient with no unbound BMAA): more than 1 mg/g; Protein-bound BMAA ([2]; frontal cortex tissue, all six Chamorro patients who had died from ALS-PDC): 149 to 1190 µg/g; Free BMAA ([2]; frontal cortex tissue, five of six Chamorro patients who had died from ALS-PDC): 3 to 10 µg/g; Free BMAA [2, 6]: 3.4 µg/g; Protein-bound BMAA [2, 6]: 220 µg/g; Free BMAA [2, 7]: 9.7 µg/g; Protein-bound BMAA [2, 7]: 264 µg/g; Free BMAA [2, 8]: 3.3 µg/g; Protein-bound BMAA [2, 8]: 433 µg/g; BMAA level in brain tissue ([2]; thirteen Canadian patients without Alzheimer's diagnosis who died of other causes): did not have detectable levels; injected BMAA not eliminated from either urine or feces [3]: 90%; stability in dried mammal specimens of great age [4]: stable

**Q.** With N[C@@H](CCC(=O)O)C(=O)O [GLU, glutamic acid] as the compound, how does the cyanobacterial growth [5] read?
**A.** increased two-fold

**Q.** For NC(=O)CC[C@H](N)C(=O)O [glutamine], which cyanobacterial growth [5] is on record?
**A.** increased two-fold
